From paper PMC10285738, “Identification of macrocyclic peptides which activate bacterial cylindrical proteases” (RSC Medicinal Chemistry, 2023)
Entries after “also recorded” stand apart in the source; their conditions may differ.

Key:
ClpP = conditions: in words, through another mechanism; cited from earlier work
Description: Modulation of ClpP was assessed using a biochemical assay monitoring the enzymatic function of the protease based on previously reported successes for the identification of allosteric activators of ClpP.[9]

Sa.ClpP [1] = molecular target: T1, Sa.ClpP (Staphylococcus aureus, UniProt Q2G036); test: FtsZ degradation by Sa.ClpP, SDS-PAGE; assay type: biochemical, S. aureus; conditions: 200 µM, ADEP2 at 10 µM, Sa. FtsZ 4.0 µM, 24 h, SDS-PAGE densitometry, at least three independent experiments, Fig. 4D
T1 construct: Strep-tag (C); made in house; host or cells: E. coli SG1146a (lacks endogenous ClpP)
Description: Lastly, we set out to answer to what extent ADEP and other allosteric activators of ClpP resemble the activation process of ClpX. To this end, we set up a biochemical assay and monitored the digestion of FtsZ, an essential protein for cell division, which is the major determinant for the filamentation phenotype induced by ADEP-activated ClpP.[17] […] We performed docking studies of the identified macrocycles into the same pocket where ADEP binds (see ESI ^† for full details).
(§1) Walther et al. Supporting Information
FITC casein degradation rate
(§2) All concentrations are given as final concentrations. Ligands were incubated at 200 µM in the […]
The linear part of the fluorescence curve was used to determine the relative degradation rate. Data analysis was performed by OriginPro […]
(§3) Beta-casein degradation by Ec.ClpP or Sa.ClpP
(§4) All concentrations are given as final concentrations. Ligands were incubated at 200 µM in […]
(§5) Aliquots were drawn at the
(§6) Gels were run at constant voltage […]
(§7) concentration was 200 µM. The results from densitometric analysis were plotted in Graphpad […]
Data is represented as mean ± SD of three independent experiments.
FtsZ degradation by Sa.ClpP […]
at a final concentration of 4.0 µM. […]
casein degradation assay. […]
SD of duplicates of at least two independent experiments. […]
equilibrated Superdex 200 Increase 10/300 GL column (Cytiva). Stabilization of Sa.ClpP in […]

Sa.ClpP [2] = molecular target: T1, Sa.ClpP; test: Gel filtration (SEC) of ClpP oligomeric state; parameters: species or system S. aureus; conditions: Sa.ClpP 1 mg/mL, ligand 200 µM, destabilizing buffer Tris-HCl 100 mM pH 7.6, 100 mM KCl, overnight at 32 °C; Superdex 200
Ec.ClpP [3] = conditions: 200 µM ligand, ClpP 1.0 µM, 24 h at 37 °C, SDS-PAGE densitometry, at least three independent experiments, Fig. 3D
Description: presence of E. coli ClpP or S. aureus ClpP (1.0 µM), and bovine beta-casein (Sigma-Aldrich –
catalogue number C6905, 5.0 µM or 3 µM) in Tris HCl buffer (100 mM, pH 7.6) with KCl (100 mM)
or HEPES buffer (100 mM, pH 7) with NaCl (150 mM) at 37 °C. Aliquots were drawn at the
indicated time points, quenched with SDS-loading buffer and heated to 90 °C for 5 min. Beta-
casein digestion was visualized by non-reducing Tris-glycine SDS-PAGE with 12 % acrylamide
and 4 % stacking gel or reducing Bolt 4-12% Bis-Tris Plus gels. Gels were run at constant voltage
(160-200 V) for 60 min and visualized with Coomassie brilliant blue dye. Protein bands were
quantified by densitometry using ImageJ from at least three independent experiments.
A two-fold dilution series in DMSO was performed to keep DMSO content identical. Highest
Prism and a non-linear fit was applied to estimate the EC50. Data is represented as mean ± SD of three independent experiments.

[4] = FITC-casein fluorescence with/without Ec.ClpP (false-positive control); conditions: 200 µM, with vs without Ec.ClpP, 24 h at 37 °C, Fig. S2
Description: as §1
Protein purification and isolation […]
expressed in E. coli C41 (DE3) cells. A single colony was incubated overnight in 2xYT media containing ampicillin (0.1 mg/mL) at 37 °C. Subsequently 10 mL of the overnight inoculum was […]
applied to a Ni-NTA affinity column (GE Healthcare). The column was washed with an increasing […]
Protein containing fraction
10 mM MgCl2, glycerol 10 % (v/v)). The pure protein sample was obtained after size exclusion […]
0.5 mM EDTA, 100 mM KCl, 10 % glycerol).
After 18 hours of growth at 25 °C, cells […]
mM Tris-HCl, 1 mM EDTA, pH 8).
Here, the protein was eluted with an isocratic gradient of buffer containing 50 mM biotin. Protein was concentrated and buffer […]
stocks were stored in storage buffer at -20 °C. For long term storage, samples were stored at -80 […]
FITC casein degradation screen
as §2
samples is subtracted from all samples.

Sa.ClpP [5] = molecular target: T1, Sa.ClpP; test: Thermal shift assay (differential scanning fluorimetry); assay type: binding; conditions: S. aureus ClpP 5 µM, ligand 200 µM, HEPES 100 mM pH 7, NaCl 150 mM, sypro orange 5x, 30-90 °C in 0.5 °C increments; mean ± SD of duplicates of at least two independent experiments
Description: All concentrations are given as final concentrations. […]
real-time qPCR (Bio-Rad CF X96).
SD of duplicates of at least two independent experiments.
equilibrated Superdex 200 Increase 10/300 GL column (Cytiva). […]

Sa.ClpP [6] = molecular target: T1, Sa.ClpP; test: beta-casein degradation by Sa.ClpP, SDS-PAGE; assay type: biochemical, S. aureus; conditions: ligands at 200 µM, ADEP2 at 10 µM, ClpP 1.0 µM, 24 h at 37 °C, Fig. 4A
Description: as §3, §4, §5, §6, §7
(§8) Data is represented as mean ± SD of three independent experiments. […]

Ec.ClpP [7] = conditions: 200 µM peptide, E. coli ClpP 0.5 µM, FITC-casein 1.8 µM + beta-bovine casein 4.8 µM, Tris HCl 100 mM pH 7.6, KCl 100 mM, 24 h at 37 °C, exc. 483 nm, em 530 nm; duplicates of at least two independent experiments; vs DMSO
Description: Next, we screened for enzymatic activation of ClpP to quickly assess the chemical library for binding and understand whether IGF-bearing macrocyclic peptides could modulate ClpP enzymatic function. Modulation of ClpP was assessed using a biochemical assay monitoring the enzymatic function of the protease based on previously reported successes for the identification of allosteric activators of ClpP.[9] […] FITC-casein, a protein labeled with fluorescein to the extent of self-quenching, is a suitable substrate for this assay, as it can only enter the proteolytic core upon apical pore opening and is indirectly a measure for the conformational state of the protease.[2,10] Enzymatic degradation of FITC-casein alleviates self-quenching giving rise to an increased fluorescence intensity and an easy readout for our purpose to identify any ligand that positively modulates the enzymatic activity of recombinant E. coli ClpP (Ec.ClpP).
Ec.ClpP was incubated for 24 h at 37 °C in the presence of a peptide library, or vehicle (DMSO) and fluorescence intensity was measured thereafter (Fig. 2C and S1 ^†). […] This was reproducibly confirmed in three independent experiments (varying the batch of enzyme).

Sa.ClpP [8] = molecular target: T1, Sa.ClpP; test: Dose-response of beta-casein degradation by Sa.ClpP; assay type: biochemical, S. aureus; conditions: two-fold dilution series in DMSO, highest concentration 200 µM, densitometry, non-linear fit; three independent experiments; Fig. 4B; read-out: EC50 (effective dose), Sa.ClpP-dependent digestion of beta-casein
Description: as §3, §4, §5, §6, §7, §8

T1 sequence (Q2G036 whole entry): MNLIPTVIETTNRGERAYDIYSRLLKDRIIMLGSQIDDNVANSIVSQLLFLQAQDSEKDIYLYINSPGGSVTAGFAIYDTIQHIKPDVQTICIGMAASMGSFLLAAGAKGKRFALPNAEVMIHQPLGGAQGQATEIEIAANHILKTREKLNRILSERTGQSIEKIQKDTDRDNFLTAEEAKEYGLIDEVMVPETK

Row | Compound | effect on enzymatic function of ClpP homologues (ClpP) | Sa.ClpP-dependent Sa.FtsZ digestion (Sa.ClpP [1]) | stabilization/retention of tetradecameric Sa.ClpP (Sa.ClpP [2]) | Ec.ClpP-dependent beta-casein digestion (Ec.ClpP [3]) | fluorescence signal in presence or absence of Ec.ClpP (false-positive check) [4] | apparent increase in melting temperature of Sa.ClpP (Sa.ClpP [5]) | activation of Sa.ClpP (beta-casein digestion) (Sa.ClpP [6]) | increase in fluorescence intensity / enzymatic activation of Ec.ClpP (FITC-casein) (Ec.ClpP [7]) | EC50 (Sa.ClpP [8])
1 | CC(C)C[C@H](NC(=O)[C@H](Cc1ccccc1)NC(=O)c1cnccn1)B(O)O [bortezomib] | able to increase enzymatic function of ClpP homologues | – | – | – | – | – | – | – | –
2 | CCCC/C=C/C(=O)N[C@@H](Cc1cc(F)cc(F)c1)C(=O)OC [compound 2, reference compound] | – | activated Sa.ClpP, and FtsZ was digested | able to retain the tetradecamer in Tris-HCl; also recorded: able to rescue and stabilize the tetradecameric structure of Sa.ClpP | – | – | – | – | – | –
3 | CC[C@H](C)[C@@H]1NC(=O)CNC(=O)[C@@H](NC(C)=O)CSCC(=O)CSC[C@@H](C(N)=O)NC(=O)CNC(=O)[C@H](Cc2ccccc2)NC(=O)CNC1=O [P4-B] | – | also induced the digestion of FtsZ, yet less efficiently | – | control of Ec.ClpP function was confirmed by SDS-PAGE analysis of beta-casein digestion | did not exhibit this behaviour | 0.6 ± 0.2 °C | able to activate the enzymatic function of Sa.ClpP | significant increase of fluorescence intensity over the DMSO-treated sample | > 100 µM
